Experimental data published in patent publication US20200077655A1, “Use of an Acyclic Picolinamide Compound as a Fungicide for Control of Phytopathogenic Fungi in Orchard, Vineyard and Plantation Crops” (Dow AgroSciences LLC, priority 2017, published 2020).

Key:
Type in all cases: in vivo
[1] = test system: Monilinia fructicola (MONIFC); test: Field microplot assessment on brown rot on peaches; conditions: field grown peaches, 17 days after first application
Source text: A field trial assessing the utility of Compound I on rot diseases of stone fruits was also done on peaches using a microplot method, part of an experimental trial designed as a randomized complete block with four replications. In a microplot method, two mature fruits on a single branch or cluster of fruits were selected for each replication (for a total of 10 replications) instead of using an entire replication. Colored flagging identified treatments. One day before the first application, a ZipLoc plastic bag was placed over the fruit or fruit cluster and an inoculation mix of MONIFC was sprayed inside covering the fruits. The plastic bags were removed after 24 hours. After 24 hr, fungicidal treatments containing Compound I, applied in a 5% EC formulation and tank mixed with an adjuvant (Trycol, 50% w/w at 0.2% v/v), were then sprayed twice on peaches (PRNPS) at rates of 50, 100, and 150 grams of active ingredient per hectare (g ai/ha). The applications to the selected mature peaches were done at 14 and 7 days before harvest using a CO2 powered inoculation spray gun at a water volume of 500 L/ha. At harvest, the fruits were collected in the field and placed in plastic Tupperware containers. 150 mL of de-ionized water was poured in the bottom of the Tupperware containers and the fruits were sprayed with a light mist of water. The containers were brought to the lab, enclosed in a large trash bag to keep the humidity high, and incubated on a lab bench at approximately 23° C. The percentage of visual disease incidence and severity was assessed during the trial at 17 days after the first application.

[2] = test system: Rhizopus stolonifer (RIZPST); test: Field microplot assessment on Rhizopus rot on peaches; conditions: field grown peaches, 17 days after first application
Capnodium sp. (CAPDSP) = test: Field assessment of sooty mold on pears
Source text: A 10% SC formulation of Compound I was tank mixed with three different adjuvants: Agnique BP420 (50% w/w at 0.3% v/v), Ethomeen T18H (50% w/w at 0.15% v/v) and Trycol (50% w/w at 0.3% v/v). Formulations of compound I were sprayed on the plant canopy of pear trees (Highland variety) of approximately 2.5 m in height at rates of 100, 150 and 200 grams of active ingredient per hectare (g ai/ha). The trial was based on six foliar applications during the growing season at approximately 12 day intervals with natural pear scab and sooty mold infections in open field conditions. The treatment was part of an experimental trial designed as a randomized complete block with four replications and a plot of approximately 3×5 m. Formulations of compound I were applied with a SOLO mistblower sprayer at a water volume of 1500 L/ha.
For VENTPI evaluation, percent control was calculated based on incidence and severity in fruit assessment vs the nontreated control on a random selection of 50 fruits per plot. […] Percent control for both diseases was calculated at 11DAAE, 7DAAF and 15DAAF.

[3] = test system: Botrytis cinerea (BOTRCI); test: Field assessment of gray mold on strawberry
Source text: On strawberry: A fungicidal treatment containing Compound I, applied in a 5% EC formulation and tank mixed with an adjuvant (Trycol, 50% w/w at 0.2% v/v), was sprayed on strawberry plants (FRAAN, Candonga variety) at rates of 50, 150 and 200 grams of active ingredient per hectare (g ai/ha). The trial was based on four broadcast applications during the growing season at approximately 10 day intervals with grey mold inoculation after the last application (plant growth stage B85). The treatment was part of an experimental trial designed as a randomized complete block with four replications and a plot size of approximately 2.0×5.0 m. Formulations of compound I were applied at water volume of 800 L/ha, using a backpack plot sprayer (BKPCKENG, solo 433; HCSOLID—Albutz ATR80 Yellow nozzle) and pressurized at 300 kPa.
Disease severity was recorded as a percentage of fruit incidence of damaged fruits on a random sample of 100 fruits per plot. Gray mold infection was assessed twice at 10 days after the third application (10DAAC) and 10DAAD. Area under the disease progress curve (AUDPC) was calculated for each plot using the sets of recorded incidence data. Relative AUDPC (% control based on AUDPC) was calculated as percent of the nontreated control.

[4] = test system: Stigmina carpophila (STIGCA); test: Field assessment of shot hole in almond, leaf and nut incidence; conditions: for Leaf Incidence of STIGCA 121 DAAA: untreated 3.1; for Nut Incidence of STIGCA 121 DAAA: untreated 6.3
Source text: A fungicidal treatment containing Compound I, applied in an SC formulation (MSO built-in) and tank mixed with an adjuvant (Adsee C80W 80%), was sprayed on almond trees (PRNDU, Butte variety), 2 applications, […] The experimental plots were run under natural infestation. The treatment was part of an experimental trial designed as a randomized complete block (RCB) with three replications and a plot of approximately 16×22 ft. Compound I was applied at water volume of 100 gal/acre, using a motorized backpack sprayer (Orifice nozzle 2.3 setting).
Leaf incidence (number of visual diseased leaves per 20 leaves per tree on the whole plot) was assessed 121 days after application A (121 DAAA).
Nut incidence (number of visual diseased nuts per 10 nuts per tree on the whole plot) was assessed 121 days after application A (121 DAAA).

[5] = 120 g ai/ha, Adsee C80W, 300 g ai/ha

COc1ccnc(C(=O)N[C@@H](C)C(=O)O[C@@H](C)C(c2ccc(F)cc2)c2ccc(F)cc2)c1OC(C)=O [Compound I, (S)-1,1-bis(4-fluorophenyl)propan-2-yl (3-acetoxy-4-methoxypicolinoyl)-L-alaninate]
MONIFC, percentage of area affected on peaches (Severity) ([1]; 50 g ai/ha): 87.3%
MONIFC, percentage of area affected on peaches (Severity) ([1]; 100 g ai/ha): 57.0%
MONIFC, percentage of area affected on peaches (Severity) ([1]; 150 g ai/ha): 69.5%
RIZPST, percentage of diseased peaches (Incidence) ([2]; 50 g ai/ha): 67.5%
RIZPST, percentage of diseased peaches (Incidence) ([2]; 100 g ai/ha): 22.5%
RIZPST, percentage of diseased peaches (Incidence) ([2]; 150 g ai/ha): 35.0%
Percent control CAPDSP, incidence in leaf assessment (Capnodium sp. (CAPDSP); 100 g ai/ha, adjuvant Agnique BP420 (first such line, r11), 15 days after final application): A (76-100)
Percent control CAPDSP, incidence in leaf assessment (Capnodium sp. (CAPDSP); 100 g ai/ha, adjuvant Agnique BP420 (second such line, r13), 15 days after final application): A (76-100)
Percent control CAPDSP, incidence in leaf assessment (Capnodium sp. (CAPDSP); 100 g ai/ha, adjuvant ETHOMEEN, 15 days after final application): A (76-100)
Percent control CAPDSP, incidence in leaf assessment (Capnodium sp. (CAPDSP); 100 g ai/ha, adjuvant None, 15 days after final application): A (76-100)
Percent control CAPDSP, incidence in leaf assessment (Capnodium sp. (CAPDSP); 100 g ai/ha, adjuvant Trycol, 15 days after final application): A (76-100)
Percent control CAPDSP, incidence in leaf assessment (Capnodium sp. (CAPDSP); 200 g ai/ha, adjuvant Agnique BP420, 15 days after final application): A (76-100)
Percent control (AUDPC) from fruit infection assessments ([3]; 50 g ai/ha): B (51-75)
Percent control (AUDPC) from fruit infection assessments ([3]; 150 g ai/ha): A (76-100)
Percent control (AUDPC) from fruit infection assessments ([3]; 200 g ai/ha): A (76-100)
Leaf Incidence of STIGCA 121 DAAA ([4]; 60 g ai/ha, MSO, 120 g ai/ha): 3.0 Number of Leaves per 20 Leaves
Nut Incidence of STIGCA 121 DAAA ([4]; 60 g ai/ha, MSO, 120 g ai/ha): 5.6 Number of Nuts per 10 Nuts
Leaf Incidence of STIGCA 121 DAAA [4, 5]: 1.4 Number of Leaves per 20 Leaves
Nut Incidence of STIGCA 121 DAAA [4, 5]: 2.5 Number of Nuts per 10 Nuts
Leaf Incidence of STIGCA 121 DAAA ([4]; 120 g ai/ha, MSO, 240 g ai/ha): 2.2 Number of Leaves per 20 Leaves
Nut Incidence of STIGCA 121 DAAA ([4]; 120 g ai/ha, MSO, 240 g ai/ha): 6.0 Number of Nuts per 10 Nuts
Leaf Incidence of STIGCA 121 DAAA ([4]; 150 g ai/ha, MSO, 300 g ai/ha): 1.7 Number of Leaves per 20 Leaves
Nut Incidence of STIGCA 121 DAAA ([4]; 150 g ai/ha, MSO, 300 g ai/ha): 4.4 Number of Nuts per 10 Nuts
Leaf Incidence of STIGCA 121 DAAA ([4]; 180 g ai/ha, MSO, 360 g ai/ha): 1.9 Number of Leaves per 20 Leaves
Nut Incidence of STIGCA 121 DAAA ([4]; 180 g ai/ha, MSO, 360 g ai/ha): 4.4 Number of Nuts per 10 Nuts
